# Results from paper PMC10584882 (Communications Biology, 2023).
# Where “and” joins values, the source holds several entries; their conditions need not be identical. Equal entries are not always repeated.
# Key:
# SARS-CoV-2-GFP = tested on: SARS-CoV-2-GFP; design: method as in PMID 33811162; details: VERO E6 cell-based SARS-CoV-2 infection assays; cited from earlier work
# SARS-CoV-2 = experiment: Anti-viral experiment with Golden Syrian hamsters: histopathology scores; assay type: in vivo, Golden Syrian hamsters (Mesocricetus auratus); details: for trachea, epithelial damage (score) / bronchi, epithelial damage (score) / pulmonary parenchyma damage (score) / submucosal damage (score) / tissue repair (score) / vascular damage (score): 1 mg/kg s.c., individual hamsters; for trachea, epithelial damage (score): 0 normal, 1 mild, 2 moderate, 3 severe tracheitis; for bronchi, epithelial damage (score) / pulmonary parenchyma damage (score) / submucosal damage (score) / tissue repair (score) / vascular damage (score): sum of five lung lobes, maximum 15
# [1] = Anti-viral experiment with Golden Syrian hamsters: body weight; assay type: in vivo, Golden Syrian hamsters (Mesocricetus auratus); details: for body weight, individual data: individual animals
smiles,measurement,setting,value
"CCCC[C@@H](C=O)NC(=O)[C@H](CC(C)C)NC(=O)OCc1ccccc1 [Calpeptin, reference compound]",concentration giving high suppression of virus replication,SARS-CoV-2-GFP,below 100 nM
CCCC[C@H](NC(=O)[C@H](CC(C)C)NC(=O)OCc1ccccc1)C(O)S(=O)(=O)[O-].[Na+] (stereo partly shown) [S-Calpeptin],"trachea, epithelial damage (score)","SARS-CoV-2; day 3 p.i., 1 mg/kg",0 and 1
same,"bronchi, epithelial damage (score)","SARS-CoV-2; day 3 p.i., 1 mg/kg",6 and 3 and 1 and 4
same,pulmonary parenchyma damage (score),"SARS-CoV-2; day 3 p.i., 1 mg/kg",7 and 4 and 5 and 8
same,submucosal damage (score),"SARS-CoV-2; day 3 p.i., 1 mg/kg",7 and 2 and 1 and 5
same,tissue repair (score),"SARS-CoV-2; day 3 p.i., 1 mg/kg",7 and 6 and 2 and 4
same,vascular damage (score),"SARS-CoV-2; day 3 p.i., 1 mg/kg",7 and 8 and 3 and 9
same,"trachea, epithelial damage (score)","SARS-CoV-2; day 5 p.i., 1 mg/kg",0 and 1 and 2
same,"bronchi, epithelial damage (score)",SARS-CoV-2; day 5 p.i.,2
same,pulmonary parenchyma damage (score),"SARS-CoV-2; day 5 p.i., 1 mg/kg",7 and 10 and 9
same,submucosal damage (score),"SARS-CoV-2; day 5 p.i., 1 mg/kg",8 and 11 and 9 and 10
same,tissue repair (score),"SARS-CoV-2; day 5 p.i., 1 mg/kg",6 and 8 and 9 and 10
same,vascular damage (score),"SARS-CoV-2; day 5 p.i., 1 mg/kg",10 and 9 and 11 and 13
same,"trachea, epithelial damage (score)","SARS-CoV-2; day 7 p.i., 1 mg/kg",0 and 1
same,"bronchi, epithelial damage (score)","SARS-CoV-2; day 7 p.i., 1 mg/kg",2 and 3 and 1
same,pulmonary parenchyma damage (score),"SARS-CoV-2; day 7 p.i., 1 mg/kg",8 and 7 and 10
same,submucosal damage (score),"SARS-CoV-2; day 7 p.i., 1 mg/kg",10 and 11 and 14
same,tissue repair (score),"SARS-CoV-2; day 7 p.i., 1 mg/kg",15 and 14
same,vascular damage (score),"SARS-CoV-2; day 7 p.i., 1 mg/kg",7 and 5 and 9
same,histopathology lesion scores versus untreated (in words),"SARS-CoV-2; infected hamsters, 1 mg/kg s.c. daily",no statistically significant differences in lesion scores
same,lung vascular damage scores versus untreated (in words),"SARS-CoV-2; infected hamsters, 1 mg/kg s.c. daily, days 5 and 7 p.i.","lower scores for vascular damage compared to the untreated group on days 5 and 7 p.i., these results were not statistically significant"
same,"body weight, individual data","[1]; G1 SARS-CoV-2 infected, 1 mg/kg s.c. daily, Day 1, 1 mg/kg",142 g and 136 g and 131 g and 130 g and 132 g and 133 g and 125 g and 128 g and 123 g and 114 g and 117 g and 111 g
same,"body weight, individual data","[1]; G1 SARS-CoV-2 infected, 1 mg/kg s.c. daily, Day 2, 1 mg/kg",139 g and 141 g and 136 g and 131 g and 128 g and 132 g and 123 g and 127 g and 120 g and 111 g and 116 g and 108 g
same,"body weight, individual data","[1]; G1 SARS-CoV-2 infected, 1 mg/kg s.c. daily, Day 3, 1 mg/kg",138 g and 133 g and 132 g and 125 g and 128 g and 131 g and 123 g and 122 g and 126 g and 118 g and 121 g and 111 g and 115 g and 106 g
same,"body weight, individual data","[1]; G1 SARS-CoV-2 infected, 1 mg/kg s.c. daily, Day 4, 1 mg/kg",126 g and 130 g and 121 g and 120 g and 118 g and 123 g and 111 g and 116 g and 104 g
same,"body weight, individual data","[1]; G1 SARS-CoV-2 infected, 1 mg/kg s.c. daily, Day 5, 1 mg/kg",126 g and 129 g and 121 g and 119 g and 118 g and 111 g and 117 g and 104 g
same,"body weight, individual data","[1]; G1 SARS-CoV-2 infected, 1 mg/kg s.c. daily, Day 6, 1 mg/kg",115 g and 118 g and 111 g and 116 g and 105 g
same,"body weight, individual data","[1]; G1 SARS-CoV-2 infected, 1 mg/kg s.c. daily, Day 7, 1 mg/kg",117 g and 121 g and 112 g and 118 g and 106 g
same,"body weight, individual data","[1]; G4 mock infected (so in the source), Day 1",155 g and 138 g and 130 g
same,"body weight, individual data","[1]; G4 mock infected (so in the source), Day 2",156 g and 137 g and 130 g
same,"body weight, individual data","[1]; G4 mock infected (so in the source), Day 3",157 g and 138 g and 131 g
same,"body weight, individual data","[1]; G4 mock infected (so in the source), Day 4",158 g and 140 g and 130 g
same,"body weight, individual data","[1]; G4 mock infected (so in the source), Day 5",159 g and 139 g and 131 g
same,"body weight, individual data","[1]; G4 mock infected (so in the source), Day 6",160 g and 139 g and 130 g
same,"body weight, individual data","[1]; G4 mock infected (so in the source), Day 7",162 g and 141 g and 131 g
same,"body weight, average","[1]; SARS-CoV-2 infected hamsters, 1 mg/kg s.c. daily, day 1","96.7382 %, relative to day 0"
same,"body weight, average","[1]; SARS-CoV-2 infected hamsters, 1 mg/kg s.c. daily, day 2","95.2969 %, relative to day 0"
same,"body weight, average","[1]; SARS-CoV-2 infected hamsters, 1 mg/kg s.c. daily, day 3","94.3407 %, relative to day 0"
same,"body weight, average","[1]; SARS-CoV-2 infected hamsters, 1 mg/kg s.c. daily, day 4","93.4383 %, relative to day 0"
same,"body weight, average","[1]; SARS-CoV-2 infected hamsters, 1 mg/kg s.c. daily, day 5","93.2155 %, relative to day 0"
same,"body weight, average","[1]; SARS-CoV-2 infected hamsters, 1 mg/kg s.c. daily, day 6","93.1372 %, relative to day 0"
same,"body weight, average","[1]; SARS-CoV-2 infected hamsters, 1 mg/kg s.c. daily, day 7","94.5983 %, relative to day 0"
same,"body weight, average","[1]; mock infected hamsters, 1 mg/kg s.c. daily, day 1","97.4975 %, relative to day 0"
same,"body weight, average","[1]; mock infected hamsters, 1 mg/kg s.c. daily, day 2","98.3232 %, relative to day 0"
same,"body weight, average","[1]; mock infected hamsters, 1 mg/kg s.c. daily, day 3","98.7966 %, relative to day 0"
same,"body weight, average","[1]; mock infected hamsters, 1 mg/kg s.c. daily, day 4","99.2826 %, relative to day 0"
same,"body weight, average","[1]; mock infected hamsters, 1 mg/kg s.c. daily, day 5","100.017 %, relative to day 0"
same,"body weight, average","[1]; mock infected hamsters, 1 mg/kg s.c. daily, day 6","100.959 %, relative to day 0"
same,"body weight, average","[1]; mock infected hamsters, 1 mg/kg s.c. daily, day 7","101.896 %, relative to day 0"
